Experiment: thermodynamic stability of the polymorphic crystalline forms of Fasidotril
Assay type: physicochemical
Source text: It has been discovered that Fasidotril can exist in various polymorphic crystalline forms which differ from each other in their physical and spectroscopic properties, their zones of thermodynamic stability and their methods of preparation. Four of these novel forms are described below and will be designated as form I, form II, form III and form IV, respectively.
It is shown that among these four forms, forms I and II are stable at low and high temperature, respectively, while forms III and IV are unstable and can be easily converted to the stable form I or II depending on the operating conditions chosen.
It is also shown that it is possible to convert form I to form II and to convert form II to form I depending on the operating conditions chosen.

CC(=O)SC[C@@H](Cc1ccc2c(c1)OCO2)C(=O)N[C@@H](C)C(=O)OCc1ccccc1 [form I, benzyl (S,S)-2-(2-acetylsulphanylmethyl-3-benzo[1,3]dioxol-5-ylpropionylamino)propionate]
stability of the polymorphic form (at low temperature): stable

CC(=O)SC[C@@H](Cc1ccc2c(c1)OCO2)C(=O)N[C@@H](C)C(=O)OCc1ccccc1 [form II, benzyl (S,S)-2-(2-acetylsulphanylmethyl-3-benzo[1,3]dioxol-5-ylpropionylamino)propionate]
stability of the polymorphic form (at high temperature): stable

CC(=O)SC[C@@H](Cc1ccc2c(c1)OCO2)C(=O)N[C@@H](C)C(=O)OCc1ccccc1 [form III, benzyl (S,S)-2-(2-acetylsulphanylmethyl-3-benzo[1,3]dioxol-5-ylpropionylamino)propionate]
stability of the polymorphic form (can be easily converted to the stable form I or II depending on the operating conditions): unstable

From patent US6767921B2, “Polymorphic forms of fasidotril, their methods of preparation and pharmaceutical compositions comprising them” (Bioproject, priority 2002, dated 2004)
